# Columns and labels:
# Format in all cases: cell-based
# [1] = tested on: OVCAR3 ovarian cancer cells; assay: Inhibitory activity against ovarian cancer cells (OVCAR3), CellTiter-Glo viability; conditions: Homo sapiens, OVCAR-3, 120 h, OVCAR3, 5 days treatment
# Method: OVCAR3 ovarian cancer cells were cultured in a cell incubator at […] with 5% CO2 using RPMI 1640 medium with […]. On the first day, the cells were plated in a 96-well plate at a cell concentration of 2500 cells/well and cultured overnight in the incubator. On the second day, the cells were treated with compounds. The maximum compound concentration was 10 μM and was 3-fold diluted to obtain 9 concentrations, and the final concentration of DMSO was 0.1%. After the cells were cultured in the incubator for another 5 days, cell viability was tested using the Celltiter Glo assay kit (Promega), and the testing method was consistent with the operational method provided by the kit. Data were processed using GraphPad Prism 8, and IC50 was calculated.
# [formula] • X: the logarithm of the compound concentration; Y: % inhibition.
# OCI-AML-3 leukemia cells = assay: Inhibitory activity against tumor cells, CellTiter-Glo: OCI-AML-3; conditions: Homo sapiens, 120 h, OCI-AML-3, 5 days treatment
# Method: (§1) MCF7 (ATCC #HTB-22) and T47D (ATCC #HTB-133) breast cancer cells and PANC-1 (ATCC #CRL-1469) pancreatic cancer cells were purchased from ATCC. MDA-MB-231 (Cobioer #CBP60382), HCC1806 (Cobioer #CBP60373), and MDA-MB-468 (Cobioer #CBP60387) breast cancer cells, HCT-116 (Cobioer #CBP60028) colorectal cancer cells, and OCI-AML-3 (Cobioer #CBP60817) and MV-4-11 (Cobioer #CBP60522) leukemia cells were purchased from Nanjing Cobioer Biosciences Co., Ltd.
# (§2) OCI-AML-3 was cultured in RPMI 1640 medium with 20% FBS; HCC1806 and T47D were cultured in RPMI 1640 medium with 10% FBS; MCF7, MDA-MB-231, MDA-MB-468, and PANC-1 were cultured in DMEM medium with 10% FBS; MV-4-11 was cultured in IMDM medium with 20% FBS; HCT-116 was cultured in MC′5A medium with 10% FBS.
# (§3) Palbociclib-resistant cells were constructed on MCF7 parent cells, designated MCF7 Palbo-R, and the culture conditions were consistent with those of the parent cells. All tumor cells were cultured in a cell incubator at 37° C. with 5% CO2. The cells were seeded at corresponding cell densities (600 cells/well for MDA-MB-231; 500 cells/well for MDA-MB-468, PANC-1, and HCT-116; 200 cells/well for MCF7 and HCC1806; 800 cells/well for MCF7 Palbo-R; 3000 cells/well for OCI-AML-3 and MV-4-11) in 384-well plates and cultured overnight in the incubator. On the second day, the cells were treated with compounds. The maximum compound concentration was 10 μM and was 3-fold diluted to obtain 9 concentrations, each tested in duplicate, and the final concentration of DMSO was 0.1%. The cells continued to be cultured in the incubator, with MDA-MB-231, PANC-1, MDA-MB-468, OCI-AML-3, and MV-4-11 being treated with drugs for 5 days and HCC1806, MCF7, MCF7 Palbo-R, and HCT116 being treated with drugs for 7 days. Cell viability was tested using the Celltiter Glo assay kit (Promega), and the testing method was consistent with the operational method provided by the kit. Readings were taken using an Envision multimode microplate reader. Data were processed using GraphPad Prism 8, and IC50 was calculated. […]
# MCF7 breast cancer cells = assay: Inhibitory activity against tumor cells, CellTiter-Glo: MCF7; conditions: Homo sapiens, 168 h, MCF7, 7 days treatment
# Method: as §1, §2, §3
# [2] = tested on: HCT-116 colorectal cancer cells; assay: Inhibitory activity against tumor cells, CellTiter-Glo: HCT-116; conditions: Homo sapiens, 168 h, HCT-116, 7 days treatment
# Method: as §1, §2
# (§4) Palbociclib-resistant cells were constructed on MCF7 parent cells, designated MCF7 Palbo-R, and the culture conditions were consistent with those of the parent cells. All tumor cells were cultured in a cell incubator at 37° C. with 5% CO2. The cells were seeded at corresponding cell densities (600 cells/well for MDA-MB-231; 500 cells/well for MDA-MB-468, PANC-1, and HCT-116; 200 cells/well for MCF7 and HCC1806; 800 cells/well for MCF7 Palbo-R; 3000 cells/well for OCI-AML-3 and MV-4-11) in 384-well plates and cultured overnight in the incubator. On the second day, the cells were treated with compounds. The maximum compound concentration was 10 μM and was 3-fold diluted to obtain 9 concentrations, each tested in duplicate, and the final concentration of DMSO was 0.1%. The cells continued to be cultured in the incubator, with MDA-MB-231, PANC-1, MDA-MB-468, OCI-AML-3, and MV-4-11 being treated with drugs for 5 days and HCC1806, MCF7, MCF7 Palbo-R, and HCT116 being treated with drugs for 7 days. Cell viability was tested using the Celltiter Glo assay kit (Promega), and the testing method was consistent with the operational method provided by the kit. Readings were taken using an Envision multimode microplate reader. Data were processed using GraphPad Prism 8, and IC50 was calculated.
# (§5) Y=Bottom+(Top−Bottom)/(1+10^((Log IC50−X)×HillSlope)). Calculation formula: • X: the logarithm of the compound concentration; Y: % inhibition.
# T47D breast cancer cells = assay: Inhibitory activity against tumor cells, CellTiter-Glo: T47D; conditions: Homo sapiens
# Method: as §1, §2, §4, §5
# [3] = tested on: MDA-MB-231 breast cancer cells; assay: Inhibitory activity against tumor cells, CellTiter-Glo: MDA-MB-231; conditions: Homo sapiens, 120 h, MDA-MB-231, 5 days treatment
# Method: as §1, §2, §3
# MV-4-11 leukemia cells = assay: Inhibitory activity against tumor cells, CellTiter-Glo: MV-4-11; conditions: Homo sapiens, MV4-11, 120 h, MV-4-11, 5 days treatment
# Method: as §1, §2, §3
# [4] = tested on: PANC-1 pancreatic cancer cells; assay: Inhibitory activity against tumor cells, CellTiter-Glo: PANC-1; conditions: Homo sapiens, 120 h, PANC-1, 5 days treatment
# Method: as §1, §2, §3
# [5] = tested on: MDA-MB-468 breast cancer cells; assay: Inhibitory activity against tumor cells, CellTiter-Glo: MDA-MB-468; conditions: Homo sapiens, 120 h, MDA-MB-468, 5 days treatment
# Method: as §1, §2, §3
# various tumor cell lines = assay: Inhibitory activity against tumor cells, summary over the panel of Tables 4 and 5; conditions: summary of Tables 4 and 5
# Method: as §1, §2, §4, §5
# [6] = tested on: MCF7 Palbo-R (palbociclib-resistant cells constructed on MCF7); assay: Inhibitory activity against tumor cells, CellTiter-Glo: MCF7 Palbo-R; conditions: Homo sapiens, 168 h, 7 days treatment
# Method: as §1, §2, §3
# [7] = tested on: HCC1806 breast cancer cells; assay: Inhibitory activity against tumor cells, CellTiter-Glo: HCC1806; conditions: Homo sapiens, 168 h, HCC1806, 7 days treatment
# Method: as §1, §2, §3
smiles,measurement,setting,value
"C#Cc1cccc([C@@H]2CN(C)CC[C@H]2C(=O)N2Cc3nc(NCc4ccn(C)n4)ncc3C[C@H]2C)c1 [Compound 1-2, ((3R,4R)-3-(3-Ethynylphenyl)-1-methylpiperidin-4-yl)((R)-6-methyl-2-(((1-methyl-1H-pyrazol-3-yl)methyl)amino)-5,8-dihydropyrido[3,4-d]pyrimidin-7(6H)-yl)methanone]",IC50,[1],11.5 nM
"C[C@@H]1Cc2cnc(N[C@H](C)c3ccccc3)nc2CN1C(=O)N[C@H](CN(C)C)c1ccccc1 [Example 5, (R)—N—((S)-2-(Dimethylamino)-1-phenylethyl)-6-methyl-2-(((R)-1-phenylethyl)amino)-5,8-dihydropyrido[3,4-d]pyrimidine-7(6H)-carboxamide]",IC50,[1],81.2 nM
"C[C@@H]1Cc2cnc(NC3Cc4ccccc4C3)nc2CN1C(=O)N[C@H](CN(C)C)c1ccccc1 [Example 7, (R)-2-((2,3-Dihydro-1H-inden-2-yl)amino)-N—((S)-2-(dimethylamino)-1-phenylethyl)-6-methyl-5,8-dihydropyrido[3,4-d]pyrimidine-7(6H)-carboxamide]",IC50,[1],6.44 nM
"CCN(C)C[C@@H](NC(=O)N1Cc2nc(NCc3ccn(C)n3)ncc2C[C@H]1C)c1ccccc1 [Example 8, (R)—N—((S)-2-(Ethyl(methyl)amino)-1-phenylethyl)-6-methyl-2-(((1-methyl-1H-pyrazol-3-yl)methyl)amino)-5,8-dihydropyrido[3,4-d]pyrimidine-7(6H)-carboxamide]",IC50,[1],58.3 nM
"C[C@H](Nc1ncc2c(n1)CN(C(=O)N[C@H](CN(C)C)c1ccccc1)[C@H](C)C2)c1ccccc1 [Example 9, (R)—N—((S)-2-(Dimethylamino)-1-phenylethyl)-6-methyl-2-(((S)-1-phenylethyl)amino)-5,8-dihydropyrido[3,4-d]pyrimidine-7(6H)-carboxamide]",IC50,[1],13.8 nM
"CC1Cc2cnc(NC3CCOCC3)nc2CN1C(=O)N[C@H](CN(C)C)c1ccccc1 (stereo partly drawn) [Example 10, N—((S)-2-(Dimethylamino)-1-phenylethyl)-6-methyl-2-((tetrahydro-2H-pyran-4-yl)amino)-5,8-dihydropyrido[3,4-d]pyrimidine-7(6H)-carboxamide]",IC50,[1],42.6 nM
"[2H]C([2H])([2H])N(C[C@@H](NC(=O)N1Cc2nc(NCc3ccn(C)n3)ncc2C[C@H]1C)c1ccccc1)C([2H])([2H])[2H] [Example 12, (R)—N—((S)-2-(Bis(methyl-d3)amino)-1-phenylethyl)-6-methyl-2-(((1-methyl-1H-pyrazol-3-yl)methyl)amino)-5,8-dihydropyrido[3,4-d]pyrimidine-7(6H)-carboxamide]",IC50,OCI-AML-3 leukemia cells,47.1 nM
same,IC50,[1],33.9 nM
same,IC50,MCF7 breast cancer cells,21.7 nM
same,IC50,[2],66 nM
same,IC50,T47D breast cancer cells,41.5 nM
same,IC50,[3],25.8 nM
same,IC50,MV-4-11 leukemia cells,27.3 nM
same,IC50,[4],50.3 nM
same,IC50,[5],32.4 nM
same,inhibitory activity against the various tumor cell lines (in words),various tumor cell lines,high inhibitory activity
same,IC50,[6],43.3 nM
same,IC50,[7],28.5 nM
"C[C@@H]1Cc2cnc(NCc3ccn(C)n3)nc2CN1C(=O)N[C@H](CN(C)C)c1cccc(Cl)c1 [Example 13, (R)—N—((S)-1-(3-Chlorophenyl)-2-(dimethylamino)ethyl)-6-methyl-2-(((1-methyl-TH-pyrazol-3-yl)methyl)amino)-5,8-dihydropyrido[3,4-d]pyrimidine-7(6H)-carboxamide]",IC50,[1],21.7 nM
"[2H]C([2H])([2H])n1ccc(CNc2ncc3c(n2)CN(C(=O)N[C@H](CN(C)C)c2ccccc2)[C@H](C)C3)n1 [Example 14, (R)—N—((S)-2-(Dimethylamino)-1-phenylethyl)-6-methyl-2-(((1-(methyl-d3)-1H-pyrazol-3-yl)methyl)amino)-5,8-dihydropyrido[3,4-d]pyrimidine-7(6H)-carboxamide]",IC50,[1],40.5 nM
"Cc1cc(Nc2ncc3c(n2)CN(C(=O)N[C@H](CN(C)C)c2ccccc2)[C@H](C)C3)ccn1 [Example 15, (R)—N—((S)-2-(Dimethylamino)-1-phenylethyl)-6-methyl-2-((2-methylpyridin-4-yl)amino)-5,8-dihydropyrido[3,4-d]pyrimidine-7(6H)-carboxamide]",IC50,[1],26.7 nM
"C[C@@H]1Cc2cnc(Nc3cnn(CC4CC4)c3)nc2CN1C(=O)N[C@H](CN(C)C)c1ccccc1 [Example 16, (R)-2-((1-(Cyclopropylmethyl)-1H-pyrazol-4-yl)amino)-N—((S)-2-(dimethylamino)-1-phenylethyl)-6-methyl-5,8-dihydropyrido[3,4-d]pyrimidine-7(6H)-carboxamide]",IC50,[1],9.99 nM
"C[C@@H]1Cc2cnc(Nc3cnn(C)c3)nc2CN1C(=O)N[C@H](CN(C)C)c1ccccc1 [Example 17, (R)—N—((S)-2-(Dimethylamino)-1-phenylethyl)-6-methyl-2-((1-methyl-1H-pyrazol-4-yl)amino)-5,8-dihydropyrido[3,4-d]pyrimidine-7(6H)-carboxamide]",IC50,[1],22.5 nM
"[2H]C([2H])([2H])N(C[C@@H](NC(=O)N1Cc2nc(N[C@@H](C)c3ccccn3)ncc2C[C@H]1C)c1ccccc1)C([2H])([2H])[2H] [Example 19, (R)—N—((S)-2-(Bis(methyl-d3)amino)-1-phenylethyl)-6-methyl-2-(((S)-1-(pyridin-2-yl)ethyl)amino)-5,8-dihydropyrido[3,4-d]pyrimidine-7(6H)-carboxamide]",IC50,[1],26.1 nM
same,IC50,[2],29.2 nM
same,IC50,T47D breast cancer cells,14.1 nM
same,inhibitory activity against the various tumor cell lines (in words),various tumor cell lines,high inhibitory activity

# — patent US20260176266A1, “PIPERIDINOPYRIMIDINE DERIVATIVE, PREPARATION METHOD THEREFOR AND USE THEREOF IN MEDICINE” (TUOJIE BIOTECH (SHANGHAI) CO., LTD., priority 2022, published 2026)
